Source: patent publication US20180187263A1, “KITS FOR DIAGNOSTIC DETECTION AND PREVENTION OF FEEDLOT BOVINE RESPIRATORY DISEASE” (Iowa State University Research Foundation, Inc., priority 2017, published 2018)

Columns and labels:
[1] = system: BRD in feedlot calves; experiment: BRD prevention at the feedlot, drug in the feed (Examples 5-7); assay type: in vivo
Procedure: An initial study was performed to confirm BRD prevention at the feedlot using an anti-inflammatory composition comprising rupatadine, the oral inhibitor of PAFR. A total of 18 calves were evaluated with the treatment arm receiving a dosage rate of 0.3 mg/kg. Calves were provided the drug in the feed during the first three weeks after entering the feedlot which is within the high risk 6-week period following transfer of the animal. Calves were purchased from a location in Joplin, Mo. having an overall incidence of BRD at >40% which is higher than the standard incidence of about 10% in cattle.
A further study was performed to confirm BRD prevention at the feedlot using the anti-inflammatory composition comprising rupatadine. The same methodology of Example 5 was employed with the modification of the number of calves and the dosage rate. The dosage rate was increased to 0.6 mg/kg. The number of calves were increased to 24 in total. The results are consistent to the first trial, including: 41.7% of treated calves (n=5 of 12) developed BRD whereas 100% of untreated calves (n=12 of 12) developed BRD.
A further study was performed to confirm BRD prevention at the feedlot using the anti-inflammatory composition comprising rupatadine as outlined in Example 5 with the modification of the number of calves (20 total) and the dosage rate. The dosage rate increased to 1.2 mg/kg.

[2] = biological target: T1, Bovine H1 histamine receptor (Bos taurus, UniProt P30546); experiment: histamine-mediated intracellular calcium accumulation in BHK cells transiently expressing bovine H1 histamine receptor; assay type: cell-based; settings: 10 nM histamine
T1 construct: expressed in transfected cells; host or cells: BHK cells, transient, lipofectamine, pcDNA3.3
T1 sequence (P30546 whole entry): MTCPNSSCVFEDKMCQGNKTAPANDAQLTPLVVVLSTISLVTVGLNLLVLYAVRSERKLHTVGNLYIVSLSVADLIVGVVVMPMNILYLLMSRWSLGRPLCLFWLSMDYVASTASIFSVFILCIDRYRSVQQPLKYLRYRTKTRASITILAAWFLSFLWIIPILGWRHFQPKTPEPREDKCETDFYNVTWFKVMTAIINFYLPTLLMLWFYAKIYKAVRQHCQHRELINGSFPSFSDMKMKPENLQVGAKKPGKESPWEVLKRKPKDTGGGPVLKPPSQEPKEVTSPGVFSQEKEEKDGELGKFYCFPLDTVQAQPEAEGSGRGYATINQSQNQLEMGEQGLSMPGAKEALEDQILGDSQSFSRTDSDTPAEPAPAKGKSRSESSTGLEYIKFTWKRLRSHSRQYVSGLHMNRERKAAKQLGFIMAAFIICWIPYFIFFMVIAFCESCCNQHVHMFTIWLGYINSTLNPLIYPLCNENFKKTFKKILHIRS
Procedure: Bovine H1 histamine receptor was cloned into pcDNA3.3 expression vector and transiently expressed in BHK tissue culture cells using lipofectamine as per Carlson et al. Ten nM histamine was then added to the cells in the presence of various concentrations of rupatadine, tripelennamine, lexipafant, or WEB2086. Intracellular calcium accumulation was monitored in the transfected cells using a commercially available kit (Abcam, Cambridge, Mass.). IC50 values were then determined by identifying the concentration of the antagonist that reduced the maximal PAF-mediated intracellular calcium accumulation by 50%. […] Therefore, as showing in Examples 11 and 12, rupatadine is the only antihistamine that can also block the function of PAFR.

[3] = system: BRD in high-risk calves; experiment: BRD prevention in high-risk calves, comparison of rupatadine treatment methods (Example 14); assay type: in vivo; settings: for calves that developed BRD: five-week observation, n=6
Procedure: In order to test various treatment methods of rupatadine, 25 high-risk calves were transported to a new farm. Seven calves were used as controls, six were given rupatadine as a single oral dose of 1 mg/kg, six were given rupatadine as a single subcutaneous injection of 7 mg/kg, six calves were given weekly subcutaneous injections of 7 mg/kg rupatadine. The animals were observed over the next five weeks twice daily for BRD. Any animal who required antibiotics for treating the clinical signs of BRD was classified as having BRD.

[4] = biological target: T2, Bovine PAFR (Bos taurus, UniProt Q9TTY5); experiment: PAF-mediated intracellular calcium accumulation in BHK cells transiently expressing bovine PAFR; assay type: cell-based; settings: 10 nM PAF; for block of bovine PAFR (PAF-mediated intracellular calcium accumulation), FIG. 11: antagonist 1-100 nM, PAFR antagonists panel; for block of bovine PAFR (PAF-mediated intracellular calcium accumulation), FIG. 12: antihistamines 1-100 nM
T2 construct: expressed in transfected cells; host or cells: BHK cells, transient, lipofectamine, pcDNA3.3
T2 sequence (Q9TTY5 whole entry): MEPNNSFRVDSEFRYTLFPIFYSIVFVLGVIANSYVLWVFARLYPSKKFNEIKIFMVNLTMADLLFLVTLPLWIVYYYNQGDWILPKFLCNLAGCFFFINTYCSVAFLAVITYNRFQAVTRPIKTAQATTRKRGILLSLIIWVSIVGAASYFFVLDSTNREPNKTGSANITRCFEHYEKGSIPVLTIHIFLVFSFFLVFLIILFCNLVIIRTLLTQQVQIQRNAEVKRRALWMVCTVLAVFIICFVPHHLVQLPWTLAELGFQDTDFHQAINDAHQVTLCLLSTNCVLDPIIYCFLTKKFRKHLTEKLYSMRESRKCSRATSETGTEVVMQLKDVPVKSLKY
Procedure: Bovine PAFR was cloned into pcDNA3.3 expression vector and transiently expressed in BHK tissue culture cells using lipofectamine as per Carlson et al., J Biol Chem, 271:23146053 (1996), herein incorporated by reference in its entirety. Ten nM PAF was then added to the cells in the presence of various concentrations of various antagonists: rupatadine, lexipafant (as in Kingsnorth, et al., BJS, 82:1414-20 (1995), herein incorporated in its entirety), and WEB2086 a PAF antagonist which has not been commercialized and/or used in humans to date (as in Casals-Stenzel et al., J of Pharmacolo Experimental Therapeutics, 241:974-81 (1987), herein incorporated in its entirety), as well as tripelennamine, a bovine-approved antihistamine at concentrations ranging between 1-100 nM. Intracellular calcium accumulation was monitored in the transfected cells using a commercially available kit (Abcam, Cambridge). IC50 values were then determined by identifying the concentration of the antagonist that reduced the maximal PAF-mediated intracellular calcium accumulation by 50%.
Various antihistamines were also tested. […] Intracellular calcium accumulation was monitored in the transfected cells using a commercially available kit (Abcam, Cambridge). IC50 values were then determined by identifying the concentration of the antagonist that reduced the maximal PAF-mediated intracellular calcium accumulation by 50%.

[5] = system: PAFR; experiment: weekly blood PAFR level by qRT-PCR (Example 14); assay type: in vivo, calves
Procedure: Blood was extracted from all 25 calves was extracted weekly and the level of PAFR was assayed using qRT-PCR and the theoretical copies of transcript/200 ng of total RNA. […] However, it dropped the most in the weekly depot injection calves during the last three weeks of observations.

[6] = pharmacotherapeutic study, blood levels after oral administration; assay type: in vivo; settings: daily oral doses of 30 mg/animal for 5 days; six calves; FIG. 9
Procedure: A pharmacotherapeutic study was completed to confirm the PAFRi survives the rumen and reaches therapeutic blood and lung concentrations following oral administration to feedlot calves. Six calves were purchased and given daily oral doses of 30 mg/animal of the drug rupatadine for 5 days. Blood was drawn five times on day one and twice per day thereafter to measure the blood levels of rupatadine.
In addition to the blood levels of the drug, the amount of the drug in the muscle tissue is also analyzed. Six recently weaned feedlot calves were orally dosed with […] of rupatadine once a day for five days, a dose that was determined based on allometric scaling from human data. Blood samples were taken at 0, 2, 4, 8, 12, 24, 48, 72, 96, and 120 hours after the first dose. Calves were euthanized at the 120-hour time point at which lungs samples were removed. Samples were submitted to the PhAST laboratory at Iowa State University, for LCMS-based quantitation of the drug and its primary metabolite that is pharmacologically active.

[7] = system: lung pathology; experiment: lung necropsy after five weeks of treatment (Example 13); assay type: in vivo; settings: after five weeks of weekly 7 mg/kg subcutaneous injections; BRD(+) calves usually >25%
Excerpt: After the five weeks, the rupatadine treated animals were euthanized and the lungs removed and necropsied. Three veterinarians then assessed the lungs for signs of disease, such as abscessation or consolidation. […] Lung pathology in BRD(+) calves is usually >25%, and of the rupatadine treated animals, there was only about 5-10% disease identified by the veterinarians.

[8] = biological target: T3, PAFR (Bos taurus, UniProt Q9TTY5); experiment: stress hormone- and commensal oral bacteria-mediated second messenger accumulation in calf blood cells; assay type: cell-based, cattle; settings: 500 nM inhibitor; cortisol 5 ng/mL, norepinephrine 100 pg/mL, 10^6 CFUs/mL commensal oral bacteria; six hours at 37° C.
T3 construct: second messenger accumulation in calf blood cells that have an increase in expression of PAFR; endogenous in cells; host or cells: bovine whole blood cells (ex vivo)
T3 sequence (Q9TTY5 whole entry): as above
Excerpt: A PAFR inhibitor blocks the stress hormone- and commensal oral bacteria-mediated second messenger accumulation in calf blood cells that have an increase in expression of PAFR. Studies presented in Example 1 and FIG. 1 were repeated with the inclusion of the compositions comprising the anti-inflammatory drug rupatadine according to the invention. Blood was drawn from 10 animals that have an increase in PAFR expression (those in which an RT-PCR amplicon was visible after 10-15 cycles) and 10 animals with “normal” or no PAFR expression (those in which an RT-PCR amplicon was visible after 30-45 cycles).
Approximately 5 mL of whole blood was collected from the jugular or caudal vein of non-transported juvenile and adult cattle. Blood was placed in EDTA tubes, aliquoted, and cortisol (5 ng/mL) and norepinephrine (100 pg/mL) were added to some of the blood. The next day, blood samples were incubated with 0 or 10^6 CFUs/mL of commensal oral bacteria, 0 or 500 nM of the inhibitor, and a second messenger reagent for six hours at 37° C. with gentle rolling. After the six-hour incubation period, blood samples were analyzed for the production of second messengers. Data was standardized based on second messenger production in the presence of vehicle. […] Fifty ng of total RNA was then subjected to semi-quantitative RT-PCR to confirm the PAFR expression status of each animal.

[9] = system: BRD in high-risk calves; experiment: BRD prevention in high-risk calves, weekly injections (Example 13); assay type: in vivo; settings: weekly injections over five weeks; rupatadine 7 mg/kg subcutaneous, tripelennamine 1 mg/kg, WEB2086 10 mg/kg; five calves per group
Procedure: Twenty-five high-risk BRD calves were transported to a new barn and five each were assigned to different treatment groups: no treatment, weekly subcutaneous injections of 7 mg/kg of rupatadine, weekly injections of 1 mg/kg tripelennamine, weekly injections of 10 mg/kg WEB2086, and weekly injections of 1 mg/kg tripelennamine and 10 mg/kg WEB2086. The animals were observed over the next five weeks twice daily for BRD. Any animal who required antibiotics for treating the clinical signs of BRD was classified as having BRD. […] Four of the five (80%, n=4 of 5) animals receiving tripelennamine only developed BRD.

Structure (SMILES): Cc1cncc(CN2CCC(=C3c4ccc(Cl)cc4CCc4cccnc43)CC2)c1 [rupatadine, 8-chloro-11-[1-[(5-methyl-3-pyridyl)methyl]-4-piperidyliden]-6,11-dihydro-5H-benzo[5,6]cyclohepta[1,2-b]pyridine]
- treated calves that developed BRD ([1]; 0.3 mg/kg in the feed during first three weeks after entering feedlot, 8 treated calves, within 5 weeks): 50%
- reduction in BRD ([1]; 0.3 mg/kg in the feed, versus calves that received no drug): 50%
- block of H1 histamine receptor function, FIG. 13 [2]: block
- calves that developed BRD ([3]; single oral dose of 1 mg/kg): 100%
- calves that developed BRD ([3]; single subcutaneous long-acting injection of 7 mg/kg): 83.3%
- calves that developed BRD ([3]; weekly subcutaneous injections of 7 mg/kg): 16.7%
- day on which BRD developed ([3]; weekly subcutaneous injections of 7 mg/kg, the one calf that developed BRD): 31 days
- block of bovine PAFR (PAF-mediated intracellular calcium accumulation), FIG. 11 [4]: blocked
- block of bovine PAFR (PAF-mediated intracellular calcium accumulation), FIG. 12 [4]: blocks
- decrease in PAFR expression over five weeks ([5]; weekly depot injection 7 mg/kg versus control and other rupatadine treatments, FIG. 21): greatest decrease
- PAFR expression at 35 days ([5]; weekly injections 7 mg/kg, 35 days): below ‘normal’ expression
- blood levels: time to reach therapeutic concentrations [6]: reaches therapeutic concentrations more rapidly than in humans
- lung disease identified by the veterinarians [7]: 5-10%
- second messenger accumulation in samples with increased PAFR expression [8]: indistinct from normal or non-expressing samples
- animals that developed BRD [9]: 0%

Structure (SMILES): Cc1nnc2n1-c1sc(CCC(=O)N3CCOCC3)cc1C(c1ccccc1Cl)=NC2 [WEB2086]
- block of H1 histamine receptor function, FIG. 13 [2]: fail to black
- block of bovine PAFR (PAF-mediated intracellular calcium accumulation), FIG. 11 [4]: blocked
- animals that developed BRD [9]: 100%

Structure (SMILES): CN(C)CCN(Cc1ccccc1)c1ccccn1 [tripelennamine]
- block of H1 histamine receptor function, FIG. 13 [2]: block
- block of bovine PAFR (PAF-mediated intracellular calcium accumulation), FIG. 11 [4]: not blocked
- block of bovine PAFR (PAF-mediated intracellular calcium accumulation), FIG. 12 [4]: do not block
- animals that developed BRD [9]: 80%

Structure (SMILES): COc1ccc(CN(CCN(C)C)c2ccccn2)cc1 [pyrilamine]
- block of bovine PAFR (PAF-mediated intracellular calcium accumulation), FIG. 12 [4]: do not block

Structure (SMILES): CC(CN1c2ccccc2Sc2ccccc21)N(C)C (stereo not shown) [promethazine]
- block of bovine PAFR (PAF-mediated intracellular calcium accumulation), FIG. 12 [4]: do not block

Structure (SMILES): OCCOCCN1CCN(C(c2ccccc2)c2ccc(Cl)cc2)CC1 (stereo not shown) [hydroxyazine, hydroxyzine]
- block of bovine PAFR (PAF-mediated intracellular calcium accumulation), FIG. 12 [4]: do not block

Structure (SMILES): CN(C)CCOC(c1ccccc1)c1ccccc1 [diphenhydramine]
- block of bovine PAFR (PAF-mediated intracellular calcium accumulation), FIG. 12 [4]: do not block

Structure (SMILES): CCOC(=O)[C@H](CC(C)C)N(C)S(=O)(=O)c1ccc(Cn2c(C)nc3cnccc32)cc1 [lexipafant]
- block of H1 histamine receptor function, FIG. 13 [2]: fail to black
- block of bovine PAFR (PAF-mediated intracellular calcium accumulation), FIG. 11 [4]: blocked
